In patent US9278925B2, “Substituted 3-(biphenyl-3-yl)-4-hydroxy-8-methoxy-1-azaspiro[4.5]dec-3-en-2-one” (BAYER INTELLECTUAL PROPERTY GMBH, priority 2011, dated 2016):

How the values were obtained:
H460 = assay: Tumour cell proliferation, CellTiter-Glo, 96 h; format: cell-based; conditions: 96-hour incubation
Method: (§1) In accordance with the invention, the substances were tested in cell-based assays for the ability of the substances of inhibiting tumour cell proliferation after a 96-hour incubation with the substance. Cell viability was tested using the CellTiter-Glo® luminescent cell viability assay (Promega). The cells were sown at a density of 2000-5000 cells/well (depending on the cell line) in 100 μl growth medium on 96-well microtitre plates. For each cell line examined, cells were sown on a separate plate to determine the luminescence at t=0 hours and t=96 hours. After overnight incubation at 37° C., the luminescence values for the t=0 samples were determined. The dose plates for the t=96 hours points in time were treated with substances diluted with growth medium. The cells were then incubated at 37° C. for 96 hours, and the luminescence values for the t=96 hours samples were then determined. For data analysis, the t=0 values were subtracted from the t=96 hours values for treated and untreated samples. The differences in luminescence in percent between substance-treated samples and control values were used to determine the growth inhibition in percent.
(§2) The substances were tested in the following cell lines which represent the stated indications in an exemplary manner: […]

KM12 = assay: Tumour cell proliferation, CellTiter-Glo, 96 h; format: cell-based; conditions: 96-hour incubation
Method: as §1, §2

MCF7 = assay: Tumour cell proliferation, CellTiter-Glo, 96 h; format: cell-based; conditions: 96-hour incubation
Method: as §1, §2

PC3 = assay: Tumour cell proliferation, CellTiter-Glo, 96 h; format: cell-based; conditions: 96-hour incubation
Method: as §1, §2

[1] = Membrane affinity logMA (MA-Transil); format: physicochemical; conditions: buffer pH 7.4
Method: Assays for Determining Membrane Affinity logMA and Protein Binding to Human Serum Albumin (HSA):
Determination of membrane affinity and protein binding to human serum albumin (HSA) was carried out via Transil technology (literature: A. Loidl-Stahlhofen, A. Eckert, T. Hartmann, M. Schöttner J Pharm Sci 90, 599-606 (2001)). Transil® (commercially available from Sovicell in Leipzig, Germany) are glass beads (diameter 10-12 μm) coated with a double-layer membrane of phosphatidylcholine (MA-Transil) or covalently attached human serum albumin (HSA-Transil).
To determine the logMA and the protein binding constant to HSA, the commercially available TRANSIL Intestinal Absorption & HSA Binding Combined Assay Kit was used. This is a 96-well microtitre plate (96 well-MTP) which is filled with Transil and can be used to determine MA-Transil and HSA-Transil binding of in each case eight active compounds. For each active compound, the Transil plate provides a row of 12 wells. Two wells serve as reference and are only filled with buffer pH 7.4. Five further wells contain MA-Transil in various increasing concentrations, the five remaining wells contain HSA-Transil in various increasing concentrations.
To determine binding of an active compound to Transil, the supernatant of the wells with Transil was quantified against the reference solution without Transil via HPLC-MS coupling (HPLC-MS=high performance liquid chromatography/mass spectrometry).
This is how the individual steps of the assay were carried out:
From the internal substance store, the active compounds were delivered in a 96-well MTP. This plate is referred to as mother plate. Each well contained 30 μl of a 10 mmol solution of active compound in DMSO (dimethyl sulphoxide). Two wells at the start (well A1) and at the end of the plate (well H12) were filled with 30 μl of a 10 mmol solution of warfarin in DMSO. Warfarin, whose membrane affinity and binding to HSA is known, serves to check whether the measurement is correct. The mother plate was used to prepare a daughter plate with a 1 to 4000 dilution with a mixture of buffer pH 7.4 and DMSO in a ratio of 1+1. The active compound concentration of each well was 2.5 μmol/liter, the volume of each well was 400 μl.
Using a Hamilton pipetting robot Microlab STAR, the 96 active compounds from the daughter plate were divided onto 12 Transil plates in total. From each well of the daughter plate, 12 times 20 μl were removed. The concentration of each well of the Transil plate was 0.25 μmol/liter, which corresponds to a dilution of 1 to 10. The DMSO content was 5%.
The filled Transil plates were each resuspended for two minutes, then allowed to stand at room temperature for at least two minutes and then centrifuged at 600 rotations per minute for five minutes. The pipetting robot was then used to remove 20 μl of supernatant from each well of the Transil plate and to transfer these to a separate microtitre plate. Here, the supernatants of in each case four Transil plates were pooled in a microtitre plate, so that at the end there were three pooled microtitre plates with in each case 80 μl of solution and an active compound concentration of 62.5 nM per well.
Prior to quantification of the active compounds by HPLC-MS, an optimization has to be carried out for each active compound where by way of a single injection daughter ion and optimum electrical voltages are determined. To this end, the pipetting robot prepared a dilution of the mother plate of 1 to 10 000 000 in an acetonitrile/water mixture in a ratio of 8+2 in a separate microtitre plate. This microtitre plate was measured by HPLC-MS using the software Discovery Quant Optimize from AB Sciex. The three pooled microtitre plates were measured by HPLC-MS using the software Discovery Quant Analyze from AB Sciex. […]

For `COC[C@]1(OC)CC[C@@]2(CC1)NC(=O)C(c1cc(-c3ccc(Cl)c(F)c3)ccc1C)=C2O` [Example 1-4, (5r,8r)-3-(4′-Chloro-3′-fluoro-4-methylbiphenyl-3-yl)-4-hydroxy-8-methoxy-8-(methoxymethyl)-1-azaspiro[4.5]dec-3-en-2-one], which IC50 (H460; Homo sapiens, NCI-H460) is on record?
Its IC50 is 0.333 µM.

What about the IC50 (KM12; Homo sapiens, KM12) of the same molecule?
The IC50 was 0.096 µM.

And the IC50 (MCF7; Homo sapiens, MCF7)?
Its IC50 is 0.048 µM.

And the IC50 (PC3; Homo sapiens, PC-3)?
The IC50 was 0.12 µM.

Which IC50 (H460; Homo sapiens, NCI-H460) does the source give for `CO[C@]1(C(F)(F)F)CC[C@]2(CC1)NC(=O)C(c1cc(-c3ccc(Cl)cc3)ccc1C)=C2O` [Example 1-1, (5r,8r)-3-(4′-Chloro-4-methylbiphenyl-3-yl)-4-hydroxy-8-methoxy-8-(trifluoromethyl)-1-azaspiro[4.5]dec-3-en-2-one] here?
Its IC50 is 0.088 µM.

What about the IC50 (KM12; Homo sapiens, KM12) of the same molecule?
The IC50 was 0.021 µM.

And the IC50 (MCF7; Homo sapiens, MCF7)?
The IC50 was 0.026 µM.

And the IC50 (PC3; Homo sapiens, PC-3)?
The IC50 was 0.029 µM.

What does the source list for `COC[C@H]1CC[C@]2(CC1)NC(=O)C(c1cc(-c3ccc(Cl)cc3)ccc1C)=C2O` [V.3-b, (5s,8s)-3-(4′-Chloro-4-methylbiphenyl-3-yl)-4-hydroxy-8-(methoxymethyl)-1-azaspiro[4.5]dec-3-en-2-one]?
IC50 (H460; Homo sapiens, NCI-H460): 0.067 µM; IC50 (KM12; Homo sapiens, KM12): 0.031 µM; IC50 (MCF7; Homo sapiens, MCF7): 0.023 µM; IC50 (PC3; Homo sapiens, PC-3): 0.036 µM; logMA [1]: 2.08

Which IC50 (H460; Homo sapiens, NCI-H460) does the source give for `COC[C@H]1CC[C@]2(CC1)NC(=O)C(c1cc(-c3ccc(Cl)c(F)c3)ccc1C)=C2O` [V.4-b, (5s,8s)-3-(4′-Chloro-3′-fluoro-4-methylbiphenyl-3-yl)-4-hydroxy-8-(methoxymethyl)-1-azaspiro[4.5]dec-3-en-2-one] here?
The IC50 was 0.043 µM.

What about the IC50 (KM12; Homo sapiens, KM12) of the same molecule?
The IC50 was 0.035 µM.

And the IC50 (MCF7; Homo sapiens, MCF7)?
Its IC50 is 0.02 µM.

What about the IC50 (PC3; Homo sapiens, PC-3) of the same molecule?
Its IC50 is 0.03 µM.

What about the logMA [1] of the same molecule?
The logMA was 2.13.

What does the source list for `CO[C@]1(C(F)(F)F)CC[C@]2(CC1)NC(=O)C(c1cc(-c3ccc(Cl)c(F)c3)ccc1C)=C2O` [Example 1-2, (5r,8r)-3-(4′-Chloro-3′-fluoro-4-methylbiphenyl-3-yl)-4-hydroxy-8-methoxy-8-(trifluoromethyl)-1-azaspiro[4.5]dec-3-en-2-one]?
IC50 (H460; Homo sapiens, NCI-H460): 0.104 µM; IC50 (KM12; Homo sapiens, KM12): 0.014 µM; IC50 (MCF7; Homo sapiens, MCF7): < 0.014 µM; IC50 (PC3; Homo sapiens, PC-3): 0.022 µM

With `CO[C@]1(C)CC[C@]2(CC1)NC(=O)C(c1cc(-c3ccc(Cl)cc3)ccc1C)=C2O` [Example V.1-a, (5r,8r)-3-(4′-Chloro-4-methylbiphenyl-3-yl)-4-hydroxy-8-methoxy-8-methyl-1-azaspiro[4.5]dec-3-en-2-one] as the molecule, how does the IC50 (H460) read?
The IC50 was 0.079 µM.

What about the IC50 (KM12) of the same molecule?
The IC50 was 0.038 µM.

What about the IC50 (MCF7) of the same molecule?
Its IC50 is 0.023 µM.

What about the IC50 (PC3) of the same molecule?
Its IC50 is 0.035 µM.

What about the logMA [1] of the same molecule?
The logMA was 1.4.

With `Cc1ccc(-c2ccc(Cl)c(F)c2)cc1C1=C(O)[C@]2(CC[C@](O)(C(F)(F)F)CC2)NC1=O` [V.2-c, (5r,8r)-3-(4′-Chloro-3′-fluoro-4-methylbiphenyl-3-yl)-4,8-dihydroxy-8-(trifluoromethyl)-1-azaspiro[4.5]dec-3-en-2-one] as the molecule, how does the IC50 (H460; Homo sapiens, NCI-H460) read?
Its IC50 is 2.12 µM.

What about the IC50 (KM12; Homo sapiens, KM12) of the same molecule?
The IC50 was 2.37 µM.

What about the IC50 (PC3; Homo sapiens, PC-3) of the same molecule?
Its IC50 is 0.767 µM.

What about the logMA [1] of the same molecule?
Its logMA is 2.3.

With `Cc1ccc(-c2ccc(Cl)cc2)cc1C1=C(O)[C@]2(CC[C@](O)(C(F)(F)F)CC2)NC1=O` [V.1-c, (5r,8r)-3-(4′-Chloro-4-methylbiphenyl-3-yl)-4,8-dihydroxy-8-(trifluoromethyl)-1-azaspiro[4.5]dec-3-en-2-one] as the molecule, how does the IC50 (H460; Homo sapiens, NCI-H460) read?
The IC50 was 1.87 µM.

And the IC50 (KM12; Homo sapiens, KM12)?
The IC50 was 0.827 µM.

And the IC50 (PC3; Homo sapiens, PC-3)?
The IC50 was 0.275 µM.

And the logMA [1]?
Its logMA is 2.1.

With `COC[C@]1(OC)CC[C@@]2(CC1)NC(=O)C(c1cc(-c3ccc(Cl)cc3)ccc1C)=C2O` [Example 1-3, (5r,8r)-3-(4′-Chloro-4-methylbiphenyl-3-yl)-4-hydroxy-8-methoxy-8-(methoxymethyl)-1-azaspiro[4.5]dec-3-en-2-one] as the molecule, how does the IC50 (H460; Homo sapiens, NCI-H460) read?
The IC50 was 0.365 µM.

What about the IC50 (KM12; Homo sapiens, KM12) of the same molecule?
Its IC50 is 0.222 µM.

What about the IC50 (MCF7; Homo sapiens, MCF7) of the same molecule?
Its IC50 is 0.045 µM.

What about the IC50 (PC3; Homo sapiens, PC-3) of the same molecule?
Its IC50 is 0.194 µM.

And the logMA [1]?
The logMA was less than 1.0.

Which results are given for `CO[C@]1(C)CC[C@]2(CC1)NC(=O)C(c1cc(-c3ccc(Cl)c(F)c3)ccc1C)=C2O` [Example V.2-a, (5r,8r)-3-(4′-Chloro-3′-fluoro-4-methylbiphenyl-3-yl)-4-hydroxy-8-methoxy-8-methyl-1-azaspiro[4.5]dec-3-en-2-one]?
IC50 (H460): 0.082 µM; IC50 (KM12): 0.073 µM; IC50 (MCF7): 0.032 µM; IC50 (PC3): 0.046 µM; logMA [1]: 1.67
